Reference: patent US20100098791A1, “COMPOSITION FOR TREATING XEROSTOMIA OR DRY MOUTH” (priority 2007, published 2010)

Experiment: Dentin loss under extreme erosion conditions, composition versus its three ingredients separately (Example 8)
Design: species or system cow
Settings: 10 cycles: 5 min pre-treatment, 1% citric acid pH 2.3 for 3 min
Procedure: The protective capacity of a mouthwash formulated with olive oil, trimethylglycine and xylitol in dentin subjected to extreme erosion conditions was analysed, compared to that of aqueous solutions of the three ingredients separately in the same concentrations used in the mouthwash tested. For the evaluation of effects a control was included consisting of distilled water.
Incisive teeth extracted from a cow's jaw were used, which were immersed in a 0.5% thymol solution at room temperature. The teeth were sectioned at the cementum-enamel junction by means of a water-cooled diamond scalpel (Exakt, Norderstedt, Germany), and the crowns and roots were embedded in acrylic resin cylinders (Paladur, Heraeus Kulzer, Wehrheim, Germany). Radicular cementum was completely eliminated. […]
Dentin loss was quantified performing profile or profilometric measurements (Mahr Perthometer, Göttingen, Germany). […] After the experiment the adhesive tapes were removed and the samples were analysed again. The average depth of the eroded surfaces was thus calculated with respect to basic surface profiles by means of specific software (Mahr Perthometer Concept 7.0, Mahr, Göttingen, Germany).
Dentin loss was calculated (mean±standard deviation) for each group and statistically analysed by Student's t test followed by Bonferroni's t test for multiple comparisons (Statistica 6.0, Statsoft, Tulsa, USA).

SMILES | protective effect on dentin against erosion
OC[C@@H](O)[C@H](O)[C@@H](O)CO [1% xylitol solution, xylitol] | did not demonstrate any protective effect
C[N+](C)(C)CC(=O)[O-] [2% trimethylglycine solution, trimethylglycine] | did not demonstrate any protective effect
